The subject of this test is 138582-337-R-J1-PDC complex spheroid viability. Nature of the test: Anticancer human tumor 138582-337-R-J1-PDC patient-derived Merkel cell tumor cell line growth inhibition. As to conditions: for viability, T/C: stronger effect = lower value. The text has this: Multicellular complex tumor spheroid response to LSD1 Inhibitor Iadademstat in combination with a variety of drugs and investigational agents in selected tumor cell lines
The current study was undertaken to assess response to LSD1 inhibitors in combination with standard-of-care drugs and investigational agents in solid tumor complex spheroid models as well as in the K-562 leukemia. Complex spheroids include a stromal component modeled by human endothelial cells (HUVEC) and fibroblasts modeled by human mesenchymal stem cells (MSCs). The concentration ranges selected for each drug and investigational agent were based upon clinically achievable concentrations if the clinical Cmax of the agent was known.
Compounds. The drugs and investigational agents used in this study are listed on Table 1. All of the agents used, including staurosporine (NSC755774) and gemcitabine (NSC613327), were obtained from the Developmental Therapeutics Program, NCI. FDA-approved anticancer drugs are available from the NCI at http://dtp.nci.nih.gov/branches/dscb/oncology_drugset_explanation.html. Drugs and investigational agents were >95% pure by proton nuclear magnetic resonance (NMR) and liquid chromatography/mass spectrometry (LC/MS). Stock solutions were prepared at 400x in DMSO, stored at -70 degrees C, and diluted in fresh medium prior to their use. The final concentration of DMSO in cell culture wells never exceeded 0.25% (v/v). The FDA-approved anticancer drug set is available from the Developmental Therapeutics Program at https://dtp.cancer.gov/organization/dscb/obtaining/available_plates.htm. All drugs and investigational agents were tested over a range starting from a high concentration at or near the clinical Cmax and decreasing in half-log increments. If the clinical Cmax for an agent had not been determined, the highest concentration tested was 10 microM.
Cell Lines. The patient-derived cancer cell (PDC) lines: 292921-168-R-J2-PDC, K24384-001-R-PDC, and 521955-158-R2-J5-PDC pancreatic carcinomas, 556581-035-R-J1 ovarian carcinoma, 324938-238-R-J1-PDC, 855422-203-R-J1-PDC and 883617-216-R-J1-PDC urothelial bladder carcinomas, 743489-274-T-PDC renal cell carcinoma, 138582-R-J1 Merkel cell tumor, K60290-347-R-J1 and K57222-313-R-J1-PDC glioblastomas, 653999-131-R-J2-PDC, LG0703-F948-PDC, and 349418-098-R-PDC non-small cell lung carcinomas, 885512-296-R-J2-PDC, 171881-019-R-J1-PDC breast carcinomas and 186277-243-T-J2-PDC and 233499-124-R-J2-PDC colon carcinomas were obtained from the NCI Patient-Derived Models Repository (PDMR, https://pdmr.cancer.gov). The established cell lines NCI/ADR-RES (RRID:CVCL_14520 and OVCAR-5 (RRID:CVCL_1628) ovarian carcinomas, 786-O (RRID:CVCL_1051) and A498 (RRID:CVCL_A498) renal cell carcinoma, NCI-H211 (ATCC, cat. CRL-5824; RRID:CVCL_1529), NCI-H196 (ATCC, cat. CRL-5823, RRID:CVCL_1509), SW 1271 (ATCC, cat. CRL-2177, RRID:CVCL_1716) and NCI-H1876 (ATCC, cat. CRL-5902, RRID:CVCL_1503) small cell lung carcinomas, MDA-MB-231 (RRID:CVCL_0062) and MDA-MB-468 (RRID:CVCL_0419)breast carcinomas (10-12). Pooled donor human umbilical vein endothelial cells (HUVEC, Lonza, cat. CC-2519) and human mesenchymal stem cells (hMSC, Lonza, cat. PT-2501) were purchased from Lonza (Walkersville, MD).
Cell Culture. All cells were maintained in an incubator at 37 degrees C and 5% CO2 with 95% humidity. The PDC lines were cultured according to standard operating procedures established by the NCI PDMR (https://pdmr.cancer.gov). Briefly all PDCs were thawed and cultured in Matrigel-coated flasks prepared with a working solution of 1X Ham's F-12 nutrient mix, without supplementation (Invitrogen, Waltham, MA, cat. 11765054), 100 U/mL penicillin-streptomycin (Invitrogen, cat. 15140122), and 2.5% Matrigel (Corning Inc., Corning, NY, cat. 354248) for the first three passages. […]

[1] abbreviates: curve of first compound, second compound 0.1 µM.
[2] abbreviates: curve of first compound, second compound 0.316 µM.
[3] abbreviates: curve of first compound, second compound 1 µM.
Setting [4] is: curve of first compound, second compound 3.16 µM.
Setting [5] is: curve of first compound, second compound 10 µM.

Several values for one entry are separate records, joined by “and”; a condition that tells them apart may be missing. Equal entries are not always repeated. A value given as a limit tells only on which side of the number the result lay.

What is called IC50 is the concentration that gives 50% inhibition. As a reminder, the viability, T/C is the ratio of treated to control.
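Further: spheroids exposed to agents for 7 days.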

As for `Nc1ncn(C2CC(O)C(CO)S2)c(=O)n1` (centres undefined) + NC1CCC(NC2CC2c2ccccc2)CC1, the IC50 runs as follows: under setting [1], > 300 nM; under setting [2], > 300 nM; under setting [3], > 300 nM; under setting [4], > 300 nM; under setting [5], > 300 nM. The viability, T/C runs as follows: (second compound 0.1 µM, first compound 0.000949 µM) 98.9%; (second compound 0.1 µM, first compound 0.003 µM) 105%; (second compound 0.1 µM, first compound 0.00949 µM) 101%; (second compound 0.1 µM, first compound 0.03 µM) 102%; (second compound 0.1 µM, first compound 0.0949 µM) 106%; (second compound 0.1 µM, first compound 0.3 µM) 93.5%. For the same molecule, the viability, T/C is 95% (second compound 0.316 µM, first compound 0.000949 µM); 93.9% (second compound 0.316 µM, first compound 0.003 µM); 96.4% (second compound 0.316 µM, first compound 0.00949 µM); 95.4% (second compound 0.316 µM, first compound 0.03 µM); 94.5% (second compound 0.316 µM, first compound 0.0949 µM); 108% (second compound 0.316 µM, first compound 0.3 µM). The viability, T/C was 90.9% (second compound 1 µM, first compound 0.000949 µM); 103% (second compound 1 µM, first compound 0.003 µM); 107% (second compound 1 µM, first compound 0.00949 µM); 87.8% (second compound 1 µM, first compound 0.03 µM); 81% (second compound 1 µM, first compound 0.0949 µM); 100% (second compound 1 µM, first compound 0.3 µM). The viability, T/C by setting is: (second compound 3.16 µM, first compound 0.000949 µM) 89.2%; (second compound 3.16 µM, first compound 0.003 µM) 96%; (second compound 3.16 µM, first compound 0.00949 µM) 88%; (second compound 3.16 µM, first compound 0.03 µM) 78.4%; (second compound 3.16 µM, first compound 0.0949 µM) 93.5%; (second compound 3.16 µM, first compound 0.3 µM) 84.7%. Besides, the viability, T/C is 80.1% (second compound 10 µM, first compound 0.000949 µM); 80.4% (second compound 10 µM, first compound 0.003 µM); 91.4% (second compound 10 µM, first compound 0.00949 µM); 87.5% (second compound 10 µM, first compound 0.03 µM); 78.6% (second compound 10 µM, first compound 0.0949 µM); 85% (second compound 10 µM, first compound 0.3 µM).

Consider `O=C(C=Cn1cnc(-c2cc(C(F)(F)F)cc(C(F)(F)F)c2)n1)NNc1cnccn1` + NC1CCC(NC2CC2c2ccccc2)CC1, for which the IC50 is, setting by setting: under setting [1], 8.4 nM; under setting [2], 9.48 nM; under setting [3], 7.39 nM; under setting [4], 6.26 nM; under setting [5], 5.57 nM. Also, the viability, T/C (second compound 0.1 µM, first compound 0.00316 µM) was 73.5%; the viability, T/C (second compound 0.1 µM, first compound 0.01 µM) was 45.8%; the viability, T/C (second compound 0.1 µM, first compound 0.0316 µM) is 21.6%; the viability, T/C (second compound 0.1 µM, first compound 0.1 µM) is 18.4%; the viability, T/C (second compound 0.1 µM, first compound 0.316 µM) is 22.6%; the viability, T/C (second compound 0.1 µM, first compound 1 µM) is 17.4%. In addition, the viability, T/C was 67% (second compound 0.316 µM, first compound 0.00316 µM); 49.1% (second compound 0.316 µM, first compound 0.01 µM); 21.2% (second compound 0.316 µM, first compound 0.0316 µM); 20.7% (second compound 0.316 µM, first compound 0.1 µM); 30.3% (second compound 0.316 µM, first compound 0.316 µM); 21.7% (second compound 0.316 µM, first compound 1 µM). The viability, T/C by setting is: (second compound 1 µM, first compound 0.00316 µM) 82.5%; (second compound 1 µM, first compound 0.01 µM) 38.4%; (second compound 1 µM, first compound 0.0316 µM) 21.4%; (second compound 1 µM, first compound 0.1 µM) 20.5%; (second compound 1 µM, first compound 0.316 µM) 21.6%; (second compound 1 µM, first compound 1 µM) 23.1%. Further, the viability, T/C is, setting by setting: (second compound 3.16 µM, first compound 0.00316 µM) 61%; (second compound 3.16 µM, first compound 0.01 µM) 42.4%; (second compound 3.16 µM, first compound 0.0316 µM) 19%; (second compound 3.16 µM, first compound 0.1 µM) 20.1%; (second compound 3.16 µM, first compound 0.316 µM) 22.8%; (second compound 3.16 µM, first compound 1 µM) 24.7%. The viability, T/C (second compound 10 µM, first compound 0.00316 µM) was 75%; the viability, T/C (second compound 10 µM, first compound 0.01 µM) is 24.6%; the viability, T/C (second compound 10 µM, first compound 0.0316 µM) is 11.9%; the viability, T/C (second compound 10 µM, first compound 0.1 µM) is 18%; the viability, T/C (second compound 10 µM, first compound 0.316 µM) is 24.5%; the viability, T/C (second compound 10 µM, first compound 1 µM) was 31.8%.

In the case of `CCN(c1cc(-c2ccc(CN3CCOCC3)cc2)cc(C(=O)NCc2c(C)cc(C)[nH]c2=O)c1C)C1CCOCC1`, the viability, T/C (compound 0.00949 µM) is 86.8% and 93.2%; the viability, T/C (compound 0.03 µM) is 103% and 81.7%; the viability, T/C (compound 0.0949 µM) was 82.1% and 70.6%; the viability, T/C (compound 0.3 µM) was 95.9% and 76.5%; the viability, T/C (compound 0.949 µM) was 95.5% and 69.7%; the viability, T/C (compound 3 µM) is 99.3% and 57.8%. In addition, the IC50 (curve of compound) is > 3000 nM.

With `NC1CCC(NC2CC2c2ccccc2)CC1` (centres undefined), for the setting “compound 0.316 µM”, the viability, T/C was 95.6% and 95.3%. For the same molecule, the IC50 (compound alone, run of 01/24/2022) is > 10000 nM.

For the origin of these results see PubChem BioAssay AID1918931 (Molecular Pharmacology Branch, DTP, NCI, 2023).
